# Test results: ChEMBL document CHEMBL5365421, “Design, synthesis, antitumor activity, and molecular dynamics simulations of novel sphingosine kinase 2 inhibitors” (Bioorg Med Chem, 2023)
# Columns and labels:
# Sphingosine kinase 2 = molecular target: T1, Sphingosine kinase 2 (Homo sapiens, UniProt Q9NRA0); test: Inhibition of SphK2 (unknown origin) using NBD-Sph as substrate by fluorescent plate reader analysis
# T1 sequence (Q9NRA0 whole entry): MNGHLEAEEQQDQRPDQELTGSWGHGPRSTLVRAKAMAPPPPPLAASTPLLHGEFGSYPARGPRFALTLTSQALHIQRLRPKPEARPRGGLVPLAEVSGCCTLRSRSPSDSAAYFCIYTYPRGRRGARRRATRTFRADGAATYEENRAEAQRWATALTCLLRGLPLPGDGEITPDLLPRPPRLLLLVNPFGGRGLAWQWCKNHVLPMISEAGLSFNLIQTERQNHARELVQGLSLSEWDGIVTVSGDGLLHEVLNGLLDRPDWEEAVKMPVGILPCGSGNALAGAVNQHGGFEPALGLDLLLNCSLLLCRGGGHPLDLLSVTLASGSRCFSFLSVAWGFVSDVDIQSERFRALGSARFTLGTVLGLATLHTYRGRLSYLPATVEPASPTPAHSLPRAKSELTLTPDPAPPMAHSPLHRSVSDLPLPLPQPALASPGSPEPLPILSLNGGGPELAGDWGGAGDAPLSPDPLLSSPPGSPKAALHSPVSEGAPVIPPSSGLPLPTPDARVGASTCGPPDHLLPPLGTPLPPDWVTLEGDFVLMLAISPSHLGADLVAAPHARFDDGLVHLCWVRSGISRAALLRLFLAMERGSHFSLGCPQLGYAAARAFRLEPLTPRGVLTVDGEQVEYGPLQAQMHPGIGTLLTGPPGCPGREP
# MGC-803 = test: Antiproliferative activity against human MGC-803 cells assessed as cell growth inhibition measured after 48 hrs by MTT assay; type: functional, cell-based; conditions: MGC-803, 48 h
# [1] = molecular target: T2, Sphingosine kinase 2 (Homo sapiens) (UniProt Q9NRA0); test: Inhibition of SphK2 (unknown origin) using NBD-Sph as substrate at 10 uM by fluorescent plate reader analysis relative to control
# T2 sequence (whole entry): T1 sequence (Q9NRA0 whole entry)
# MCF7 = test: Antiproliferative activity against human MCF7 cells assessed as cell growth inhibition measured after 48 hrs by MTT assay; type: functional, cell-based; conditions: MCF7, 48 h
# Sphingosine kinase 1 = Sphingosine kinase 1 (Homo sapiens, UniProt Q9NYA1); test: Inhibition of SphK1 (unknown origin) using D-Sph as substrate incubated for 40 mins by ADP-Glo Plus luminescence kinase assay
# Sphingosine kinase 1, sequence (Q9NYA1 whole entry): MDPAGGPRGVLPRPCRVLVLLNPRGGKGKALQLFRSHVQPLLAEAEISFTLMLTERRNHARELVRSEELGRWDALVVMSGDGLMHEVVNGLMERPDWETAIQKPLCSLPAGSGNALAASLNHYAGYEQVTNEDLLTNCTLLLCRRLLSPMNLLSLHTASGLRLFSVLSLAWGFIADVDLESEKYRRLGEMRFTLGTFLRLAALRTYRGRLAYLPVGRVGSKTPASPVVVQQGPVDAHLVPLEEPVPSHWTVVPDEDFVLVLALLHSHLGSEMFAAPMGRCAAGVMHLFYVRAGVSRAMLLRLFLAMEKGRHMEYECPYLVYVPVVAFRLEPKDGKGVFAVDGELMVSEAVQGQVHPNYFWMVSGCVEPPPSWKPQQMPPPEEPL
# U-937 = test: Antiproliferative activity against human U-937 cells assessed as cell growth inhibition measured after 48 hrs by MTT assay; type: functional, cell-based; conditions: U-937, 48 h
structure (smiles),measurement,setting,value
CCCCCOc1ccc2cc(-c3noc([C@@H]4[C@@H](O)CCN4C(=N)N)n3)ccc2c1,IC50,Sphingosine kinase 2,4 µM
O=C(c1ccc(OCc2noc(-c3ccc(Cl)cc3)n2)cc1)N1CCC[C@@H]1CO,IC50,MGC-803,40.3 µM
same,inhibition,[1],< 50%
same,IC50,MCF7,45.3 µM
same,IC50,Sphingosine kinase 1,7.76 µM
same,IC50,Sphingosine kinase 2,> 10 µM
same,IC50,U-937,2.95 µM
O=C(c1ccc(OCc2noc(-c3ccc(C(F)(F)F)cc3)n2)cc1)N1CCC[C@H]1CO,IC50,MGC-803,43 µM
same,IC50,MCF7,51.9 µM
same,IC50,Sphingosine kinase 2,2.46 µM
same,IC50,U-937,29.4 µM
NC(=O)[C@H]1CCCN1Cc1ccc(COc2cccc(OCc3ccccc3)c2)cc1,IC50,MGC-803,65.2 µM
same,IC50,MCF7,18.3 µM
same,IC50,Sphingosine kinase 1,0.924 µM
same,IC50,Sphingosine kinase 2,> 10 µM
same,IC50,U-937,41.5 µM
"OCC1CCCN1Cc1ccc(COc2cccc(OCc3ccccc3)c2)cc1 (single isomer, unassigned)",IC50,MGC-803,15.7 µM
same,IC50,MCF7,> 100 µM
same,IC50,Sphingosine kinase 1,0.446 µM
same,IC50,Sphingosine kinase 2,0.0115 µM
same,IC50,U-937,> 80.2 µM
NCCNC(=O)c1ccc(COc2cccc(OCc3ccccc3)c2)cc1,IC50,MGC-803,25.1 µM
same,IC50,MCF7,53.5 µM
same,IC50,Sphingosine kinase 2,0.0416 µM
same,IC50,U-937,51.4 µM
NC(=O)CNC(=O)c1ccc(OCc2noc(-c3ccc(C(F)(F)F)cc3)n2)cc1,IC50,MGC-803,10.9 µM
same,IC50,MCF7,39.7 µM
same,IC50,Sphingosine kinase 2,> 10 µM
same,IC50,U-937,8.44 µM
NC(=O)CNCc1ccc(COc2cccc(OCc3ccccc3)c2)cc1,IC50,MGC-803,55.3 µM
same,IC50,MCF7,42.7 µM
same,IC50,Sphingosine kinase 1,30.4 µM
same,IC50,Sphingosine kinase 2,0.0462 µM
same,IC50,U-937,> 82.3 µM
NCCNC(=O)c1ccc(OCc2noc(-c3ccc(Cl)cc3)n2)cc1,IC50,MGC-803,42 µM
same,inhibition,[1],< 50%
same,IC50,MCF7,54 µM
same,IC50,Sphingosine kinase 1,1.47 µM
same,IC50,Sphingosine kinase 2,> 10 µM
same,IC50,U-937,31.4 µM
NC(=O)CNC(=O)c1ccc(COc2cccc(OCc3ccccc3)c2)cc1,IC50,MGC-803,33.8 µM
same,IC50,MCF7,20.3 µM
same,IC50,Sphingosine kinase 2,0.0115 µM
same,IC50,U-937,32.7 µM
NC(=O)[C@@H]1CCCN1C(=O)c1ccc(OCc2noc(-c3ccc(C(F)(F)F)cc3)n2)cc1,IC50,MGC-803,22.9 µM
same,IC50,MCF7,12.8 µM
same,IC50,Sphingosine kinase 2,> 10 µM
same,IC50,U-937,25.6 µM
OC[C@@H]1CCCN1Cc1ccc(COc2cccc(OCc3ccccc3)c2)cc1,IC50,MGC-803,32.2 µM
same,IC50,MCF7,> 100 µM
same,IC50,Sphingosine kinase 1,0.917 µM
same,IC50,Sphingosine kinase 2,0.00191 µM
same,IC50,U-937,37.6 µM
NC(=O)[C@H]1CCCN1C(=O)c1ccc(OCc2noc(-c3ccc(Cl)cc3)n2)cc1,IC50,MGC-803,20.2 µM
same,inhibition,[1],< 50%
same,IC50,MCF7,7.63 µM
same,IC50,Sphingosine kinase 2,> 10 µM
same,IC50,U-937,47.8 µM
NC(=O)[C@@H]1CCCN1Cc1ccc(COc2cccc(OCc3ccccc3)c2)cc1,IC50,MGC-803,63.6 µM
same,IC50,MCF7,21.5 µM
same,IC50,Sphingosine kinase 2,> 10 µM
same,IC50,U-937,43.3 µM
